ChEMBL document CHEMBL3227967, “Quantitative structure-activity relationships in 1-aryl-2-(alkylamino)ethanol antimalarials” (J Med Chem, 1979)

Test system: Plasmodium berghei
Assay: Antimalarial activity against Plasmodium berghei
Assay type: functional

| SMILES | log(1/C) |
| --- | --- |
| CCCCN(CCCC)CC(O)c1cc(-c2ccc(F)cc2)nc2cc(F)ccc12 (configuration not stated) | 2.52 |
| CCCNCC(O)c1cc2ccc(C(F)(F)F)cc2c2cc(C(F)(F)F)ccc12 (configuration not stated) | 4.48 |
| CCCCN(CCCC)CC(O)c1cc2cc(Cl)cc(Cl)c2nc1-c1ccc(Cl)cc1 (configuration not stated) | 2.32 |
| CCCCN(CCCC)CC(O)c1cc2ccsc2c2cc(Br)ccc12 (configuration not stated) | 3.37 |
| CCCCCCCN(CCCCCCC)CC(O)c1cc2ccccc2c2ncccc12 (configuration not stated) | 2.25 |
| OC(CN1CCCCC1)c1cc(-c2ccc(F)cc2)nc2cc(F)ccc12 (configuration not stated) | 2.45 |
| CCN(CC)CC(O)c1cc(-c2cccs2)nc2cccc(Br)c12 (configuration not stated) | 2.38 |
| CCCCCCCN(CCCCCCC)CC(O)c1cccc2c1cc(Cl)c1ccccc12 (configuration not stated) | 2.5 |
| CCCCN(CCCC)CC(O)c1cc(C(=O)c2cccc(Cl)c2)nc2c(Cl)cc(Cl)cc12 (configuration not stated) | 4.48 |
| OC(CC1CCCCN1)c1cc(C(F)(F)F)nc2c(C(F)(F)F)cccc12 (configuration not stated) | 4.41 |
| OC(CC1CCCCN1)c1ccnc2c(C(F)(F)F)cccc12 (configuration not stated) | 2.75 |
| CCCCN(CCCC)CC(O)c1cc2ccccc2c2cc(C(F)(F)F)ccc12 (configuration not stated) | 3.23 |
| OC(CC1CCCCN1)c1cc(Nc2ccc(Cl)cc2)nc2ccccc12 (configuration not stated) | 2.52 |
| CCCCN(CCCC)CC(O)c1cc2cc(Cl)cc(Cl)c2c2cc(C(F)(F)F)ccc12 (configuration not stated) | 3.74 |
| CCCCCCCN(CCCCCCC)CC(O)c1cc2c(Cl)cc(Cl)cc2c2cc(Cl)sc12 (configuration not stated) | 2.67 |
| CCCN(CCC)CC(O)c1cc2cc(Br)ccc2c2cc(Br)ccc12 (configuration not stated) | 4.27 |
| CCCCN(CCCC)CC(O)C1CC(c2ccc(Cl)c(Cl)c2)=Nc2c(Cl)cc(Cl)cc21 (configuration not stated) | 3.6 |
| CCCCN(CCCC)CC(O)c1cc(/C=C/c2ccc(Cl)cc2)nc(/C=C/c2ccc(Cl)cc2)c1 (configuration not stated) | 4.18 |
| CCCCCCCN(CCCCCCC)CC(O)c1cc(-c2ccc(Cl)cc2)nc2c(C(F)(F)F)cccc12 (configuration not stated) | 3.13 |
| CCCC(CCC)NCC(O)c1cc(-c2ccc(Cl)cc2)nc(-c2ccc(Cl)cc2)c1 (configuration not stated) | 4.13 |
| CCCCN(CCCC)CC(O)c1cc(C(=O)c2ccccc2)nc2c(Cl)cc(Cl)cc12 (configuration not stated) | 3.03 |
| CCN(CC)CC(O)c1cc2ccc(Cl)cc2nc1-c1ccc(Cl)cc1 (configuration not stated) | 2.11 |
| CCCCCCN(CCCCCC)CCC(O)c1cc2c(O)cccc2c2ccccc12 (configuration not stated) | 2.52 |
| CN1CCCCC1CC(O)c1cc2ccccc2c2cc(Br)ccc12 (configuration not stated) | 3.44 |

| SMILES | log(1/C) |
| --- | --- |
| CCCCCCCN(CCCCCCC)CC(O)c1cccc2cc3c(Cl)cccc3cc12 (configuration not stated) | 2.44 |
| CCN(CC)CC(O)c1cc(-c2ccc(OC)c(OC)c2)nc2ccc(Cl)cc12 (configuration not stated) | 3.12 |
| CCCCN(CCCC)CC(O)c1cc(-c2ccc(Br)cc2)nc(-c2ccc(C(F)(F)F)cc2)c1 (configuration not stated) | 3.62 |
| OC(CN1CCN(c2ccccc2)CC1)c1cc(-c2ccccc2)nc2c(Cl)cc(Cl)cc12 (configuration not stated) | 2.66 |
| CCCCCN(CCCCC)CC(O)c1cc2cc(Cl)ccc2c2cc(Cl)ccc12 (configuration not stated) | 4.01 |
| OC(CNC12CC3CC(CC(C3)C1)C2)c1cc(-c2ccc(Cl)cc2)nc2c(Cl)cc(Cl)cc12 (configuration not stated) | 3.59 |
| CCCCN(CCCC)CC(O)c1c(OC)c2cc(Cl)ccc2c2ccc(Cl)cc12 (configuration not stated) | 3.71 |
| CCCCN(CCCC)CC(O)c1ccc(-c2ccc(Cl)cc2)c2c(Cl)cc(Cl)cc12 (configuration not stated) | 3.33 |
| CCCCNCC(O)c1cc(-c2ccc(Cl)cc2)nc(-c2ccc(Cl)cc2)c1 (configuration not stated) | 3.56 |
| OC(CC1CCCCN1)C1CC(c2ccccc2)=Nc2c(Cl)cc(Cl)cc21 (configuration not stated) | 2.71 |
| Cc1ccc2cc(C(O)CC3CCCCN3)c3ccc(C(F)(F)F)cc3c2c1 (configuration not stated) | 3.16 |
| CCCCCCCN(CCCCCCC)CC(O)c1cc2c(Cl)cccc2c2ccccc12 (configuration not stated) | 2.56 |
| OC(CC1CCCCN1)c1cc(Oc2ccc(Cl)cc2)nc2c(Cl)cc(Cl)cc12 (configuration not stated) | 4.16 |
| CCCCN(CCCC)CC(O)c1ccnc2cc(C(F)(F)F)ccc12 (configuration not stated) | 2.51 |
| OC(CC1CCCN1)c1cc(-c2ccccc2)nc2ccccc12 (configuration not stated) | 2.26 |
| CCCCCCN(CCCCCC)CC(O)c1cc(-c2ccc(Cl)c(Cl)c2)nc2ccc(OC)cc12 (configuration not stated) | 3.35 |
| CCCCCCN(CCCCCC)CC(O)c1cc(-c2ccc(OC)cc2)nc2cc(OC)c(Cl)cc12 (configuration not stated) | 2.64 |
| OC(CC1CCCCN1)c1cc2cc(Br)ccc2c2cc(C(F)(F)F)ccc12 (configuration not stated) | 3.96 |
| CCCCN(CCCC)CC(O)c1cc2sccc2c2ccsc12 (configuration not stated) | 2.1 |
| OC(CC1CCCCN1)c1cc2ccccc2c2c(C(F)(F)F)cccc12 (configuration not stated) | 3.73 |
| COc1ccc(-c2cc(C(O)CC3CCCCN3)c3cccc(C)c3n2)cc1 (configuration not stated) | 3.18 |
| CCCCCCN(CCCCCC)CC(O)c1cccc2c1cc(Br)c1ccccc12 (configuration not stated) | 2.77 |
| OC(CNC1CCCCC1)c1cc(-c2ccc(C(F)(F)F)cc2)nc(-c2ccc(C(F)(F)F)cc2)c1 (configuration not stated) | 4.17 |
| CCCCN(CCCC)CC(O)c1cc(C(F)(F)c2ccccc2)nc2c(Cl)cccc12 (configuration not stated) | 2.46 |

| SMILES | log(1/C) |
| --- | --- |
| OC(CC1CCCCN1)c1cc2cc(C(F)(F)F)cc(C(F)(F)F)c2c2cc(C(F)(F)F)ccc12 (configuration not stated) | 4.47 |
| CCCCCCCN(CCCCCCC)CC(O)c1cc2ccccc2c2ccc3ccccc3c12 (configuration not stated) | 3.25 |
| CCCCCCCN(CCCCCCC)CC(O)c1cc2ccncc2c2ccccc12 (configuration not stated) | 2.33 |
| CCN(CC)CC(O)c1cc2cc(Cl)cc(Cl)c2nc1-c1ccc(Cl)cc1 (configuration not stated) | 2.47 |
| OC(CC1CCCCN1)c1cc2ccccc2c2c(Cl)cc(Cl)cc12 (configuration not stated) | 3.52 |
| CCCCN(CCCC)CC(O)c1cc2cc(Br)ccc2c2cc(C(F)(F)F)ccc12 (configuration not stated) | 4.07 |
| CCCCN(CCCC)CCC(O)c1cc(C(F)(F)F)nc2ccc(C(F)(F)F)cc12 (configuration not stated) | 3.31 |
| CCCCN(CCCC)CC(O)c1cc2cc(Cl)ccc2c2ccccc12 (configuration not stated) | 3.01 |
| OC(CC1CCCCN1)c1cc2ccccc2c2cc(Br)ccc12 (configuration not stated) | 3.49 |
| CCCCN(CCCC)CC(O)c1cc2c(Cl)cccc2c2ccccc12 (configuration not stated) | 2.65 |
| CCCCN(CCC)CC(O)c1ccc2cc3ccccc3cc2c1 (configuration not stated) | 2.49 |
| CCCCN(CCCC)CC(O)c1cc(C23CC4CC(CC(C4)C2)C3)nc2c(C(F)(F)F)cccc12 (configuration not stated) | 3.59 |
| OC(CC1CCCCN1)c1cc2cc(Cl)ccc2c2c(Cl)cc(Cl)cc12 (configuration not stated) | 4.29 |
| CCCCN(CCCC)CC(O)c1cc2ccsc2c2cc(C(F)(F)F)ccc12 (configuration not stated) | 3.5 |
| CCCCCCCN(CCCCCCC)CC(O)c1cc2ccc(C(F)(F)F)cc2c2cc(Cl)ccc12 (configuration not stated) | 2.9 |
| OC(CC1CCCCN1)c1cc(-c2ccc(C(F)(F)F)cc2)nc(C(F)(F)F)c1 (configuration not stated) | 4.32 |
| CCCCN(CCCC)CC(O)c1cc(C(=O)c2cccc(C(F)(F)F)c2)nc2c(C(F)(F)F)cc(Cl)cc12 (configuration not stated) | 4.52 |
| CCCCN(CCCC)CC(O)c1cc(Cl)c2nc(-c3ccccc3)ccc2c1 (configuration not stated) | 2.51 |
| OC(CC1CCCCN1)c1ccnc2cc(Cl)ccc12 (configuration not stated) | 2.14 |
| OC(CC1CCCCN1)c1cc(Oc2ccc(Cl)c(Cl)c2)nc2c(Cl)cc(Cl)cc12 (configuration not stated) | 4.1 |
| CCCCCCCN(CCCCCCC)CC(O)c1cc(-c2ccc(Cl)cc2)nc(-c2ccc(Cl)cc2)c1 (configuration not stated) | 2.67 |
| CCCCN(CCCC)CC(O)c1cccc2ccc3cccc(Br)c3c12 (configuration not stated) | 2.23 |
| OC(CCC1CCCCN1)c1cc2ccc(C(F)(F)F)cc2c2cc(C(F)(F)F)ccc12 (configuration not stated) | 4.11 |
| CCCCNCCC(O)c1c2ccccc2c(Cl)c2cc(C(F)(F)F)ccc12 (configuration not stated) | 3 |
